For four compounds, IC50 results are on record in BindingDB's records for doi:10.1021/jm0010623 (Bayer, 2001).

The target of assay [1] is DNA topoisomerase I (Escherichia coli). The experiment in a line: Antibacterial activity against Escherichia coli DNA topoisomerase I.
Assay [2] deals with DNA gyrase (Escherichia coli). The assay can be described thus: Antibacterial activity against Escherichia coli DNA gyrase.
The target in assay [3] is DNA gyrase (Micrococcus luteus). The experiment in a line: Antibacterial activity against Micrococcus luteus DNA gyrase.

Take `COC(=O)c1c(Br)c(OC)cc(O)c1CSC[C@H](Nc1nc(-c2ccc([N+](=O)[O-])cc2)cs1)C(=O)OC` [BAY-507950]: the IC50 is 195000 nM in assay [1], 489 nM in assay [2] and 326 nM in assay [3].

`COC(=O)c1c(Br)c(OC)cc(O)c1CSC[C@@H](Nc1nc(-c2ccc([N+](=O)[O-])cc2)cs1)C1=NOCCO1` showed an IC50 in assay [3] of 62500 nM.

As to `COC(=O)c1c(Br)c(OC)cc(O)c1CSC[C@H](Nc1nc(-c2ccc([N+](=O)[O-])cc2)cs1)C1=NOCCO1` [BAY-507952], the values for the IC50 in assay [1], in assay [2] and in assay [3] were 187000 nM, 781 nM and 625 nM, respectively.

As for `COC(=O)c1c(Br)c(OC)cc(O)c1CSC[C@H](Nc1nc(-c2ccc([N+](=O)[O-])cc2)cs1)c1nc(C)no1` [Ro-616653], the IC50 turned out to be 188000 nM in assay [1], 157 nM in assay [2] and 157 nM in assay [3].
